Data: article PMC8953592, “Mechanism of Action and Therapeutic Potential of the β-Hairpin Antimicrobial Peptide Capitellacin from the Marine Polychaeta Capitella teleta” (Marine Drugs, 2022)
Positions of bridges follow the written chain, without caps; N, C: chain ends. Residues, ends and D or L forms follow the SMILES beside them.

Tests used:
[1] = system: Gram-positive bacteria; details: Gram-positive test strains
[2] = system: Gram-negative bacteria; details: Gram-negative test strains
[3] = system: Micrococcus luteus B-1314; details: B-1314, 24 h
[4] = system: Staphylococcus aureus 209P; details: 24 h
[5] = system: Bacillus subtilis B-886; details: B-886, 24 h
[6] = system: E. coli ML-35p; details: 24 h
[7] = system: E. coli ATTC 25922; details: ATTC 25922, 24 h
[8] = system: E. coli CI 3600; details: CI 3600, 24 h
[9] = system: E. coli CI 214; details: CI 214, 24 h
[10] = system: E. cloacae CI 4172; details: CI 4172, 24 h
[11] = system: A. baumanii CI 2675; details: 24 h
[12] = system: P. aeruginosa PAO1; details: PAO1, 24 h
[13] = system: K. pneumonia ATCC 700603; details: ATCC 700603, 24 h
[14] = system: human red blood cells; experiment: Hemolytic assay (hemoglobin release); details: human erythrocytes
Method: To examine the ability of the peptides to permeabilize cytoplasmic membranes of bacterial and mammalian cells, the ONPG test and hemolysis assay were used, respectively. […] The hemolytic activity of AMPs against a suspension of human erythrocytes was determined by the method of double serial dilution in buffered saline followed by incubation for 1.5 h (Figure 2A). […] Next, we used ONPG assay to estimate E. coli inner membrane permeabilization by the peptides.
The hemolytic activity of compounds was performed using human red blood cells (hRBS), in accordance with the previously described approach. Briefly, hRBS of a healthy donor were separated from fresh blood and washed 3 times with ice-cold phosphate-buffered saline (PBS pH 7.4) and centrifuged at 500× g for 10 min; additionally, citrate buffer was added to prevent clotting. Further, supernatant was discarded and erythrocyte suspension was prepared in PBS as 8% (v/v) solution. The test was carried out in the 96-well plate, taking into account two-fold serial dilutions of studied peptides. […] Then the plate was centrifuged at 1000× g for 15 min for the precipitation of erythrocyte. The amount of hemoglobin release was determined by absorption spectroscopy at 405 nm. Triton X-100 (0.1% v/v) was used as a positive control, which underwent a complete lysis of erythrocytes, and PBS working solution was used as a negative control. The percentage hemolysis was calculated by the following formula: Hemolysis (%)=OD405(compound)− OD405 (zero lysis)/OD405(100 % lysis)− OD405 (zero lysis)×100%
The assays were conducted three times. The quantitative data were presented as an average means with standard deviations.

[15] = system: E. coli ML-35p; design: method as in 2 sources, one per row (each row's own in cited_ref): ref 4, 19, 27 = [4]; PMID 33291782; doi:10.3390/md18120620; 4. Panteleev P.V. Tsarev A.V. Safronova V.N. Reznikova O.V. Bolosov I.A. Sychev S.V. Shenkarev Z.O. Ovchinnikova T.V. Structure Elucidation and Functional Studies of a Novel β-Hairpin Antimicrobial Pe || [19]; PMID 26814379; doi:10.1002/psc.2843; 19. Panteleev P.V. Bolosov I.A. Ovchinnikova T.V. Bioengineering and Functional Characterization of Arenicin Shortened Analogs with Enhanced Antibacterial Activity and Cell Selectivity J. Pept. Sci. 2 || [27]; PMID 25558400; doi:10.32607/20758251-2014-6-4-99-109; 27. Shamova O.V. Orlov D.S. Balandin S.V. Shramova E.I. Tsvetkova E.V. Panteleev P.V. Leonova Y.F. Tagaev A.A. Kokryakov V.N. Ovchinnikova T.V. Acipensins—Novel Antimicrobial Peptides from Leukocytes ||| ref 4 = [4]; PMID 33291782; doi:10.3390/md18120620; 4. Panteleev P.V. Tsarev A.V. Safronova V.N. Reznikova O.V. Bolosov I.A. Sychev S.V. Shenkarev Z.O. Ovchinnikova T.V. Structure Elucidation and Functional Studies of a Novel β-Hairpin Antimicrobial Pe; details: at a concentration several-fold higher than MIC; cited from earlier work
[16] = system: E. coli MDR CI 1057; format: cell-based

For `CC[C@H](C)[C@@H]1NC(=O)[C@@H](NC(=O)[C@@H](NC(=O)[C@H](CCCNC(=N)N)NC(=O)[C@@H]2CCCN2C(=O)[C@H](CO)NC(=O)[C@@H](N)CCCNC(=N)N)C(C)C)CSSC[C@@H](C(=O)N[C@@H](Cc2c[nH]c3ccccc23)C(=O)NCC(=O)O)NC(=O)[C@H](CCCNC(=N)N)NC(=O)[C@H](CCCNC(=N)N)NC(=O)[C@H](Cc2ccc(O)cc2)NC(=O)[C@@H]2CSSC[C@H](NC(=O)[C@H](C(C)C)NC(=O)[C@H](CCCNC(=N)N)NC1=O)C(=O)N[C@@H](CCCNC(=N)N)C(=O)N[C@@H](CC(N)=O)C(=O)NCC(=O)N[C@@H](C(C)C)C(=O)N2` [CT2], the “Geometric mean (GM) of the peptide MICs” value [1] was 3.17 µM and the “Geometric mean (GM) of the peptide MICs” value [2] was 0.46 µM.
In the case of `CC[C@H](C)[C@@H]1NC(=O)[C@@H](NC(=O)[C@@H](NC(=O)[C@H](CCCNC(=N)N)NC(=O)[C@@H]2CCCN2C(=O)[C@@H](N)CO)C(C)C)CSSC[C@@H](C(=O)N[C@@H](Cc2c[nH]c3ccccc23)C(=O)O)NC(=O)[C@H](CCCNC(=N)N)NC(=O)[C@H](CCCNC(=N)N)NC(=O)[C@H](Cc2ccc(O)cc2)NC(=O)[C@@H]2CSSC[C@H](NC(=O)[C@H](C(C)C)NC(=O)[C@H](CCCNC(=N)N)NC1=O)C(=O)N[C@@H](CCCNC(=N)N)C(=O)N[C@@H](CC(N)=O)C(=O)NCC(=O)N[C@@H](C(C)C)C(=O)N2` [CT3], the “Geometric mean (GM) of the peptide MICs” value [1] is reported as 10.08 µM and the “Geometric mean (GM) of the peptide MICs” value [2] is reported as 1.09 µM.
With `CC[C@H](C)[C@@H]1NC(=O)[C@@H](NC(=O)[C@@H](NC(=O)[C@@H](N)CCCNC(=N)N)C(C)C)CSSC[C@@H](C(=O)N[C@@H](Cc2c[nH]c3ccccc23)C(=O)O)NC(=O)[C@H](CCCNC(=N)N)NC(=O)[C@H](CCCNC(=N)N)NC(=O)[C@H](Cc2ccc(O)cc2)NC(=O)[C@@H]2CSSC[C@H](NC(=O)[C@H](C(C)C)NC(=O)[C@H](CCCNC(=N)N)NC1=O)C(=O)N[C@@H](CCCNC(=N)N)C(=O)N[C@@H](CC(N)=O)C(=O)NCC(=O)N[C@@H](C(C)C)C(=O)N2` [CT4] the “Geometric mean (GM) of the peptide MICs” value [1] was 6.35 µM and the “Geometric mean (GM) of the peptide MICs” value [2] was 0.59 µM.
With `CC[C@H](C)[C@@H]1NC(=O)[C@@H](NC(=O)[C@H](Cc2c[nH]c3ccccc23)NC(=O)[C@@H](N)CCCCN)CSSC[C@@H](C(=O)N[C@@H](CCCNC(=N)N)C(=O)O)NC(=O)[C@H](CCCNC(=N)N)NC(=O)[C@H](CCCNC(=N)N)NC(=O)[C@H](Cc2ccc(O)cc2)NC(=O)[C@@H]2CSSC[C@H](NC(=O)[C@H](C(C)C)NC(=O)[C@H](CCCNC(=N)N)NC1=O)C(=O)N[C@@H](CCCNC(=N)N)C(=O)N[C@@H](CC(N)=O)C(=O)NCC(=O)N[C@@H](C(C)C)C(=O)N2` [CT5] the “Minimum Inhibitory Concentration” value [3] was 8 µM, the “Minimum Inhibitory Concentration” value [4] was 8 µM and the “Minimum Inhibitory Concentration” value [5] was 32 µM. For the same compound, the “Geometric mean (GM) of the peptide MICs” value [1] was 12.7 µM, the “Minimum Inhibitory Concentration” value [6] was 0.5 µM and the “Minimum Inhibitory Concentration” value [7] was 0.5 µM. The “Minimum Inhibitory Concentration” value [8] was 0.5 µM, the “Minimum Inhibitory Concentration” value [9] was 0.5 µM and the “Minimum Inhibitory Concentration” value [10] was 4 µM. For the same compound, the “Minimum Inhibitory Concentration” value [11] was 0.5 µM, the “Minimum Inhibitory Concentration” value [12] was 4 µM and the “Minimum Inhibitory Concentration” value [13] was 4 µM. For the same compound, the “Geometric mean (GM) of the peptide MICs” value [2] was 1.09 µM.
With `CC(C)[C@@H]1NC(=O)CNC(=O)[C@H](CC(N)=O)NC(=O)[C@H](CCCNC(=N)N)NC(=O)[C@@H]2CSSC[C@H](NC1=O)C(=O)N[C@@H](Cc1ccc(O)cc1)C(=O)N[C@@H](CCCNC(=N)N)C(=O)N[C@@H](CCCNC(=N)N)C(=O)N[C@H](C(=O)N[C@@H](Cc1c[nH]c3ccccc13)C(=O)O)CSSC[C@H](NC(=O)[C@@H](NC(=O)[C@@H](N)CCCNC(=N)N)C(C)C)C(=O)N[C@@H](Cc1ccccc1)C(=O)N[C@@H](CCCNC(=N)N)C(=O)N[C@@H](C(C)C)C(=O)N2` [CT6] the “Geometric mean (GM) of the peptide MICs” value [1] was 6.35 µM and the “Geometric mean (GM) of the peptide MICs” value [2] was 0.55 µM.
In the case of `CC[C@H](C)[C@@H]1NC(=O)[C@@H](NC(=O)[C@@H](NC(=O)[C@@H](N)CCCNC(=N)N)C(C)C)CSSC[C@@H](C(=O)N[C@@H](Cc2c[nH]c3ccccc23)C(=O)O)NC(=O)[C@H](CCCNC(=N)N)NC(=O)[C@H](CCCNC(=N)N)NC(=O)[C@H](Cc2ccc(O)cc2)NC(=O)[C@@H]2CSSC[C@H](NC(=O)[C@H](C(C)C)NC(=O)[C@H](CCCNC(=N)N)NC1=O)C(=O)N[C@@H](Cc1ccc(O)cc1)C(=O)N[C@@H](CCCNC(=N)N)C(=O)NCC(=O)N[C@@H](C(C)C)C(=O)N2` [CT7] (H-RVCIRVCYRGVCYRRCW-OH; disulfide 3-16, 7-12), the “maximum level of lysis (hemolysis)” value ([14]; 128 μM peptide, 1.5 h incubation, PBS, 37 °C, absorbance 405 nm, Triton X-100 = 100%) is reported as roughly 50%, the “Minimum Inhibitory Concentration” value [3] is reported as 1 µM and the “Minimum Inhibitory Concentration” value [4] is reported as 2 µM. The “Minimum Inhibitory Concentration” value [5] was 4 µM, the “Geometric mean (GM) of the peptide MICs” value [1] was 2 µM and the “Minimum Inhibitory Concentration” value [6] was 0.5 µM. The “Minimum Inhibitory Concentration” value [7] was 0.25 µM, the “Minimum Inhibitory Concentration” value [8] was 0.25 µM and the “Minimum Inhibitory Concentration” value [9] was 0.25 µM. For the same compound, the “Minimum Inhibitory Concentration” value [10] was 2 µM, the “Minimum Inhibitory Concentration” value [11] was 0.125 µM and the “Minimum Inhibitory Concentration” value [12] was 1 µM. For the same compound, the “Minimum Inhibitory Concentration” value [13] was 4 µM and the “Geometric mean (GM) of the peptide MICs” value [2] was 0.55 µM.
For `CC[C@H](C)[C@@H]1NC(=O)[C@@H](NC(=O)[C@@H](NC(=O)[C@H](CCCNC(=N)N)NC(=O)[C@@H]2CCCN2C(=O)[C@@H](N)CO)C(C)C)CSSC[C@@H](C(=O)N[C@@H](Cc2c[nH]c3ccccc23)C(=O)NCC(=O)O)NC(=O)[C@H](CCCNC(=N)N)NC(=O)[C@H](CCCNC(=N)N)NC(=O)[C@H](Cc2ccc(O)cc2)NC(=O)[C@@H]2CSSC[C@H](NC(=O)[C@H](C(C)C)NC(=O)[C@H](CCCNC(=N)N)NC1=O)C(=O)N[C@@H](CCCNC(=N)N)C(=O)N[C@@H](CC(N)=O)C(=O)NCC(=O)N[C@@H](C(C)C)C(=O)N2` [Cap, capitellacin], the “hemolytic effect after 24 h exposure” value ([14]; 128 µM, 24 h) was 50%, the “concentration above which toxic effect was observed after 24 h” value ([14]; 24 h, 32 µM = 64× MIC) was “above 32 µM” and the “Geometric mean (GM) of the peptide MICs” value [1] was 8 µM. The “Geometric mean (GM) of the peptide MICs” value [2] was 1 µM.
For arenicin-1, the “membrane permeabilization after 60 min” value [15] is listed as “almost full membrane permeabilization”.
With polymyxin B the “Initial MIC value” ([16]; E. coli MDR CI 1057, Mueller–Hinton medium containing added NaCl, before passages) was 0.125 µM and the “increase in MIC value after 9 passages” value ([16]; E. coli MDR CI 1057, after just 9 passages) was 64 fold.
For protegrin-1, the “membrane permeabilization after 60 min” value [15] is listed as “almost full membrane permeabilization”.
